# Source: US20100222434A1, “PHARMACEUTICAL COMPOSITION FOR […]-BETA PROTEIN ACCUMULATION” (Sumitomo Chemical Company, Limited, priority 2007, published 2010)
# System: Aβ accumulation in cultured nerve cells (CHP212 cells)
# Experiment: Measurement of fluctuation in the amount of Aβ accumulation in cultured nerve cells
# Type: cell-based
# Conditions: human neuroblastoma CHP212 cells; Aβ in the medium by ELISA (Amyloid β1-42 kit) 48 hours after addition of test substance; 10^−11 M to 10^−6 M; versus DMSO control (100%)
# Excerpt: FIG. 1 is a diagram showing results of measuring fluctuation caused by a test substance of the formula (II) in the amount of Aβ accumulation in cultured nerve cells (CHP212 cells).
# In the diagram, each column represents, starting from the left, a result of measurement obtained in a control well to which only a solvent (DMSO) has been added, in a well to which the test substance has been added so that its final concentration can be 10^−11 M (10^−11 M), in a well to which the test substance has been added so that its final concentration can be 10^−10 M (10^−10 M), in a well to which the test substance A has been added so that its final concentration can be 10^−9 M (10^−9 M), in a well to which the test substance has been added so that its final concentration can be 10^−8 M (10^−8 M), in a well to which the test substance has been added so that its final concentration can be 10^−7 M (10^−7 M), and in a well to which the test substance has been added so that its final concentration can be 10^−6 M (10^−6 M). The results are shown in % by setting a result obtained in a control well to which only a solvent (DMSO) has been added as 100%. […]
smiles,measurement,value
CCCN(CC1CC1)c1ccc(C#N)c(C(F)(F)F)c1 [formula (II)],amount of Aβ accumulation,markedly decreased
